# Reference: ChEMBL document CHEMBL4145634, “Discovery of Janus Kinase 2 (JAK2) and Histone Deacetylase (HDAC) Dual Inhibitors as a Novel Strategy for the Combinational Treatment of Leukemia and Invasive Fungal Infections” (J Med Chem, 2018)
# What was measured:
# [1] = target: Tyrosine-protein kinase JAK2 (Homo sapiens, UniProt O60674); test: Inhibition of JAK2 (unknown origin) using FAM-labeled peptide as substrate preincubated for 10 mins followed by substrate addition and measured after 25 mins in presence of ATP
# Chain of Tyrosine-protein kinase JAK2 (O60674 whole entry): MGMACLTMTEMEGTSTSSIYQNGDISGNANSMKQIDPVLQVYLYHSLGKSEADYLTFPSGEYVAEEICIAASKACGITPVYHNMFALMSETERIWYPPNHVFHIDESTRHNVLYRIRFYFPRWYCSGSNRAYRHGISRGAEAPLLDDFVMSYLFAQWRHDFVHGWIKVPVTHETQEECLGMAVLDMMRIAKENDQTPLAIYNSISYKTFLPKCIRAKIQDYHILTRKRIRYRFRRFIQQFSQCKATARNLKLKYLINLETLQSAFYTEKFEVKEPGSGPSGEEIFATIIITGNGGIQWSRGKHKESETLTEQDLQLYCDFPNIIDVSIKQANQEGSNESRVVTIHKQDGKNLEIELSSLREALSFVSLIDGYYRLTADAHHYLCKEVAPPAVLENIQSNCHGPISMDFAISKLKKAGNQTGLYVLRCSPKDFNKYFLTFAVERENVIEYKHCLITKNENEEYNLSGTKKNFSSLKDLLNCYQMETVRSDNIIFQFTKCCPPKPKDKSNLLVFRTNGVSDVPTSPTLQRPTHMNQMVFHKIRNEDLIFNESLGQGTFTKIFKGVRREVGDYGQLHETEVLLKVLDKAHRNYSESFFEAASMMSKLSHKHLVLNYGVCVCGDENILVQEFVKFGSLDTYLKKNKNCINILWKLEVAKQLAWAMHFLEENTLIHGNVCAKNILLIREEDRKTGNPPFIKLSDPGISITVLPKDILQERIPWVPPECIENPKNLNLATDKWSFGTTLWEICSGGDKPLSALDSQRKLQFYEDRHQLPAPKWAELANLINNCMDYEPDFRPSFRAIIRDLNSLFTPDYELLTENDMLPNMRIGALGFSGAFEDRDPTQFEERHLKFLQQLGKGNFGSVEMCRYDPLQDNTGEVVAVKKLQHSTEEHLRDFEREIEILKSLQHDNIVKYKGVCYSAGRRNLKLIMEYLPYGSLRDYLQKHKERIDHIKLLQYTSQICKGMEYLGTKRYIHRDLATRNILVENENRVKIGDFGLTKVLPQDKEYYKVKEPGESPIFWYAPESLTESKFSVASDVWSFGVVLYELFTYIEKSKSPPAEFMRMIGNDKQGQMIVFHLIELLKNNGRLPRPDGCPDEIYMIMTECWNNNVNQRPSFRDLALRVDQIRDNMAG
# Histone deacetylase 1 = Histone deacetylase 1 (Homo sapiens, UniProt Q13547); test: Inhibition of full length human recombinant HDAC1 expressed in baculovirus expression system using (Ac-Leu-Gly-Lys(Ac)-AMC as substrate preincubated for 5 mins followed by substrate addition and measured after 30 mins by fluorescence assay
# Chain of Histone deacetylase 1 (Q13547 whole entry): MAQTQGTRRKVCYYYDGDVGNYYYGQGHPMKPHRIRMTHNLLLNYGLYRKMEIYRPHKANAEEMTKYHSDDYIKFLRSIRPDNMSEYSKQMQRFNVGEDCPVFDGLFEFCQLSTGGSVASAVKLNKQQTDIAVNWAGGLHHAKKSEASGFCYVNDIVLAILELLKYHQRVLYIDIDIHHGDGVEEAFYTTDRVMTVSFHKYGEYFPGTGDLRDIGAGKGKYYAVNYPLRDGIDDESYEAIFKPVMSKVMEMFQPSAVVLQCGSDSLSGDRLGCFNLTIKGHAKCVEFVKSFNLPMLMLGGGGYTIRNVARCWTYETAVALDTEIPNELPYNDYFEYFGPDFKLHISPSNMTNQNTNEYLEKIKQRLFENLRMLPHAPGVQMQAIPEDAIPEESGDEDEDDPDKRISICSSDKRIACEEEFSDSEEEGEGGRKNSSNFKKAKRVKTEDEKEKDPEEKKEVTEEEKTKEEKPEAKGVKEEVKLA
# HL-60 = test: Antiproliferative activity against human HL60 cells after 48 hrs by CCK-8 assay; assay type: functional, cell-based; conditions: HL-60, 48 h
# K562 = test: Antiproliferative activity against human K562 cells after 48 hrs by CCK-8 assay; assay type: functional, cell-based; conditions: K562, 48 h
# HEL = test: Antiproliferative activity against human HEL cells after 48 hrs by CCK-8 assay; assay type: functional, cell-based
# Candida albicans [2] = test: microbe, parasite or virus in culture; assay type: functional; conditions: Candida albicans, 0304103, 48 h
# Description: Antifungal activity against FLC resistant Candida albicans 0304103 after 48 hrs by checkerboard microdilution method
# Candida albicans [3] = test: microbe, parasite or virus in culture; assay type: functional; conditions: Candida albicans, 0304103, 48 h; remark: listed apart in the source
# Description: Antifungal activity against FLC resistant Candida albicans 0304103 assessed as fluconazol MIC50 after 48 hrs by checkerboard microdilution method
# Candida albicans [4] = test: microbe, parasite or virus in culture; assay type: functional; conditions: Candida albicans, 0304103, 48 h; remark: listed apart in the source
# Description: Antifungal activity against FLC resistant Candida albicans 0304103 after 48 hrs in presence of fluconazol by checkerboard microdilution method
# Candida albicans [5] = test: Antifungal activity against FLC resistant Candida albicans 100 after 48 hrs by checkerboard microdilution method; assay type: functional; conditions: Candida albicans, 100, 48 h
# Candida albicans [6] = test: microbe, parasite or virus in culture; assay type: functional; conditions: Candida albicans, 100, 48 h
# Description: Antifungal activity against FLC resistant Candida albicans 100 assessed as fluconazol MIC50 after 48 hrs by checkerboard microdilution method
# Candida albicans [7] = test: Antifungal activity against FLC resistant Candida albicans 100 after 48 hrs in presence of fluconazol by checkerboard microdilution method; assay type: functional; conditions: Candida albicans, 100, 48 h
# Candida albicans [8] = test: microbe, parasite or virus in culture; assay type: functional; conditions: Candida albicans, 0710922, 48 h
# Description: Antifungal activity against FLC resistant Candida albicans 0710922 after 48 hrs by checkerboard microdilution method
# Candida albicans [9] = test: microbe, parasite or virus in culture; assay type: functional; conditions: Candida albicans, 0710922, 48 h; remark: listed apart in the source
# Description: Antifungal activity against FLC resistant Candida albicans 0710922 assessed as fluconazol MIC50 after 48 hrs by checkerboard microdilution method
# Candida albicans [10] = test: microbe, parasite or virus in culture; assay type: functional; conditions: Candida albicans, 0710922, 48 h; remark: listed apart in the source
# Description: Antifungal activity against FLC resistant Candida albicans 0710922 after 48 hrs in presence of fluconazol by checkerboard microdilution method
# Candida albicans [11] = test: Synergistic antifungal activity against FLC resistant Candida albicans 0304103 assessed as FIC index after 48 hrs by checkerboard microdilution method; assay type: functional
# Candida albicans [12] = test: Synergistic antifungal activity against FLC resistant Candida albicans 100 assessed as FIC index after 48 hrs by checkerboard microdilution method; assay type: functional
# Candida albicans [13] = test: Synergistic antifungal activity against FLC resistant Candida albicans 0710922 assessed as FIC index after 48 hrs by checkerboard microdilution method; assay type: functional
Compound,IC50 [1],IC50 (Histone deacetylase 1),IC50 (HL-60),IC50 (K562),IC50 (HEL),MIC50 (Candida albicans [2]),MIC50 (Candida albicans [3]),MIC50 (Candida albicans [4]),MIC50 (Candida albicans [5]),MIC50 (Candida albicans [6]),MIC50 (Candida albicans [7]),MIC50 (Candida albicans [8]),MIC50 (Candida albicans [9]),MIC50 (Candida albicans [10]),fractional inhibitory concentration index (FICI) (Candida albicans [11]),fractional inhibitory concentration index (FICI) (Candida albicans [12]),fractional inhibitory concentration index (FICI) (Candida albicans [13])
N#CCNC(=O)c1ccc(-c2ccnc(Nc3ccc(N4CCC(C(=O)Nc5ccc(/C=C/C(=O)NO)cc5)CC4)cc3)n2)cc1,0.015 µM,5.1 µM,> 50 µM,> 50 µM,> 50 µM,> 64 µg/mL,1 µg/mL,4 µg/mL,> 64 µg/mL,1 µg/mL,64 µg/mL,> 64 µg/mL,2 µg/mL,16 µg/mL,0.078,1.02,0.31
CS(=O)(=O)Nc1ccc(-c2ccnc(Nc3ccc(N4CCC(C(=O)NCc5ccc(C(=O)NO)cc5)CC4)cc3)n2)cc1,0.018 µM,1.1 µM,> 50 µM,10 µM,6.3 µM,> 64 µg/mL,2 µg/mL,8 µg/mL,> 64 µg/mL,1 µg/mL,4 µg/mL,> 64 µg/mL,0.5 µg/mL,64 µg/mL,0.15,0.078,1.01
CS(=O)(=O)Nc1ccc(-c2ccnc(Nc3ccc(N4CCC(C(=O)NCCCCCCC(=O)NO)CC4)cc3)n2)cc1,0.002 µM,0.25 µM,12 µM,8.9 µM,3.9 µM,> 64 µg/mL,0.5 µg/mL,8 µg/mL,> 64 µg/mL,0.25 µg/mL,8 µg/mL,> 64 µg/mL,0.25 µg/mL,32 µg/mL,0.13,0.13,0.5
CS(=O)(=O)Nc1ccc(-c2ccnc(Nc3ccc(N4CCC(C(=O)Nc5ccc(C(=O)NO)cc5)CC4)cc3)n2)cc1,0.002 µM,0.38 µM,11 µM,8.6 µM,2 µM,> 64 µg/mL,> 64 µg/mL,> 64 µg/mL,> 64 µg/mL,16 µg/mL,64 µg/mL,> 64 µg/mL,> 64 µg/mL,> 64 µg/mL,>2,1.25,>2
CS(=O)(=O)Nc1ccc(-c2ccnc(Nc3ccc(N4CCC(C(=O)NO)CC4)cc3)n2)cc1,0.001 µM,2.9 µM,> 50 µM,18 µM,> 50 µM,> 64 µg/mL,0.5 µg/mL,4 µg/mL,> 64 µg/mL,1 µg/mL,8 µg/mL,> 64 µg/mL,0.25 µg/mL,32 µg/mL,0.07,0.14,0.51
CS(=O)(=O)Nc1ccc(-c2ccnc(Nc3ccc(N4CCC(C(=O)Nc5ccccc5N)CC4)cc3)n2)cc1,0.002 µM,2.1 µM,16 µM,9.5 µM,3.2 µM,> 64 µg/mL,> 64 µg/mL,> 64 µg/mL,> 64 µg/mL,64 µg/mL,64 µg/mL,> 64 µg/mL,> 64 µg/mL,> 64 µg/mL,>2,2,>2
CS(=O)(=O)Nc1ccc(-c2ccnc(Nc3ccc(N4CCC(C(=O)NCCCCCC(=O)NO)CC4)cc3)n2)cc1,0.003 µM,0.35 µM,37 µM,10 µM,17 µM,32 µg/mL,0.5 µg/mL,16 µg/mL,32 µg/mL,0.25 µg/mL,16 µg/mL,> 64 µg/mL,64 µg/mL,64 µg/mL,0.5,0.5,2
N#CCNC(=O)c1ccc(-c2ccnc(Nc3ccc(N4CCC(C(=O)Nc5ccccc5N)CC4)cc3)n2)cc1,0.008 µM,1.7 µM,> 50 µM,> 50 µM,6.6 µM,> 64 µg/mL,> 64 µg/mL,> 64 µg/mL,> 64 µg/mL,> 64 µg/mL,> 64 µg/mL,> 64 µg/mL,64 µg/mL,64 µg/mL,>2,>2,2
Nc1ccccc1NC(=O)c1ccc(-c2ccnc(Nc3ccc(N4CCOCC4)cc3)n2)cc1,0.11 µM,> 50 µM,> 50 µM,> 50 µM,> 50 µM,> 64 µg/mL,> 64 µg/mL,> 64 µg/mL,> 64 µg/mL,0.5 µg/mL,64 µg/mL,> 64 µg/mL,> 64 µg/mL,> 64 µg/mL,>2,1.01,>2
CS(=O)(=O)Nc1ccc(-c2ccnc(Nc3ccc(N4CCC(C(=O)NCCCCC(=O)NO)CC4)cc3)n2)cc1,0.001 µM,2.2 µM,> 50 µM,11 µM,8.1 µM,32 µg/mL,0.5 µg/mL,16 µg/mL,> 64 µg/mL,0.5 µg/mL,16 µg/mL,> 64 µg/mL,0.5 µg/mL,32 µg/mL,0.5,0.26,0.51
CS(=O)(=O)Nc1ccc(-c2ccnc(Nc3ccc(N4CCC(C(=O)NCCCC(=O)NO)CC4)cc3)n2)cc1,0.001 µM,9.2 µM,> 50 µM,12 µM,12 µM,32 µg/mL,4 µg/mL,8 µg/mL,> 64 µg/mL,1 µg/mL,8 µg/mL,> 64 µg/mL,0.5 µg/mL,32 µg/mL,0.31,0.14,0.51
